Data taken from PubChem BioAssay (NCI).
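Test compounds were applied to cells in 96-well plates for 48 hours at 5 doses. Definition used: TGI = concentration required for complete inhibition of growth.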

Tests used:
Test in all cases: growth of human tumour cells (NCI), 48 h
[1] = test system: KM12 colon
[2] = test system: SK-MEL-28 melanoma
[3] = test system: SK-OV-3 ovarian
[4] = test system: A549 NSCLC
[5] = test system: COLO 205 colon
[6] = test system: UO-31 renal
[7] = test system: M19-MEL melanoma
[8] = test system: U251 CNS
[9] = test system: SN12C renal
[10] = test system: SK-MEL-5 melanoma
[11] = test system: SF-539 CNS
[12] = test system: CAKI-1 renal
[13] = test system: LOX IMVI melanoma
[14] = test system: RPMI-8226 leukemia
[15] = test system: A498 renal
[16] = test system: NCI-H226 lung
[17] = test system: SF-268 CNS
[18] = test system: HCT-116 colon
[19] = test system: OVCAR-3 ovarian
[20] = test system: TK-10 renal
[21] = test system: SNB-78 CNS
[22] = test system: NCI-H522 lung
[23] = test system: NCI-H460 lung
[24] = test system: SW-620 colon
[25] = test system: UACC-62 melanoma
[26] = test system: 786-0 renal
[27] = test system: RXF-631 renal
[28] = test system: LXFL 529 NSCLC
[29] = test system: HL-60(TB) leukemia
[30] = test system: MOLT-4 leukemia
[31] = test system: HOP-92 NSCLC
[32] = test system: EKVX NSCLC
[33] = test system: MALME-3M melanoma
[34] = test system: ACHN renal
[35] = test system: XF 498 CNS
[36] = test system: SR leukemia
[37] = test system: NCI-H23 lung
[38] = test system: DLD-1 colon
[39] = test system: IGROV1 ovarian
[40] = test system: KM20L2 colon
[41] = test system: OVCAR-4 ovarian
[42] = test system: SNB-75 CNS
[43] = test system: HCT-15 colon
[44] = test system: UACC-257 melanoma
[45] = test system: M14 melanoma
[46] = test system: HCC-2998 colon
[47] = test system: HT29 colon
[48] = test system: HOP-62 NSCLC
[49] = test system: OVCAR-5 ovarian
[50] = test system: CCRF-CEM leukemia
[51] = test system: SF-295 CNS
[52] = test system: DMS 114 small cell lung
[53] = test system: RXF 393 renal
[54] = test system: K-562 leukemia
[55] = test system: SNB-19 CNS
[56] = test system: DMS 273 small cell lung
[57] = test system: OVCAR-8 ovarian
[58] = test system: SK-MEL-2 melanoma
[59] = test system: HOP-18 NSCLC

## O=C1NC(=O)C2C1N(Cc1ccccc1)C(=O)N2Cc1ccccc1 (stereo not drawn)
[1]
  TGI: > 100 µM
[2]
  TGI: > 100 µM
[3]
  TGI: > 100 µM
[4]
  TGI: > 100 µM
[5]
  TGI: > 100 µM
[6]
  TGI: > 100 µM
[7]
  TGI: > 100 µM
[8]
  TGI: > 100 µM
[9]
  TGI: > 100 µM
[10]
  TGI: > 100 µM
[11]
  TGI: > 100 µM
[12]
  TGI: > 100 µM
[13]
  TGI: > 100 µM
[14]
  TGI: > 100 µM
[15]
  TGI: > 100 µM
[16]
  TGI: > 100 µM
[17]
  TGI: > 100 µM
[18]
  TGI: > 100 µM
[19]
  TGI: > 100 µM
[20]
  TGI: > 100 µM
[21]
  TGI: > 100 µM
[22]
  TGI: > 100 µM
[23]
  TGI: > 100 µM
[24]
  TGI: > 100 µM
[25]
  TGI: > 100 µM
[26]
  TGI: > 100 µM
[27]
  TGI: > 100 µM
[28]
  TGI: > 100 µM
[29]
  TGI: > 100 µM
[30]
  TGI: > 100 µM
[31]
  TGI: > 100 µM
[32]
  TGI: > 100 µM
[33]
  TGI: > 100 µM
[34]
  TGI: > 100 µM
[35]
  TGI: > 100 µM
[36]
  TGI: > 100 µM
[37]
  TGI: > 100 µM
[38]
  TGI: > 100 µM
[39]
  TGI: > 100 µM
[40]
  TGI: > 100 µM
[41]
  TGI: > 100 µM
[42]
  TGI: > 100 µM
[43]
  TGI: > 100 µM
[44]
  TGI: > 100 µM
[45]
  TGI: > 100 µM
[46]
  TGI: > 100 µM
[47]
  TGI: > 100 µM
[48]
  TGI: > 100 µM
[49]
  TGI: > 100 µM
[50]
  TGI: > 100 µM
[51]
  TGI: > 100 µM
[52]
  TGI: > 100 µM
[53]
  TGI: > 100 µM
[54]
  TGI: > 100 µM
[55]
  TGI: > 100 µM

## O=S(=O)(C/C(=N\O)c1ccccc1)c1ccccc1
[1]
  TGI: > 100 µM
[2]
  TGI: > 100 µM
[3]
  TGI: > 100 µM
[4]
  TGI: > 100 µM
[5]
  TGI: > 100 µM
[6]
  TGI: > 100 µM
[7]
  TGI: > 100 µM
[8]
  TGI: > 100 µM
[56]
  TGI: > 100 µM
[9]
  TGI: > 100 µM
[10]
  TGI: > 100 µM
[11]
  TGI: > 100 µM
[12]
  TGI: > 100 µM
[13]
  TGI: > 100 µM
[14]
  TGI: > 100 µM
[15]
  TGI: > 100 µM
[16]
  TGI: > 100 µM
[17]
  TGI: > 100 µM
[18]
  TGI: > 100 µM
[19]
  TGI: > 100 µM
[20]
  TGI: > 100 µM
[21]
  TGI: > 100 µM
[22]
  TGI: > 100 µM
[23]
  TGI: > 100 µM
[24]
  TGI: > 100 µM
[25]
  TGI: > 100 µM
[26]
  TGI: > 100 µM
[27]
  TGI: > 100 µM
[28]
  TGI: > 100 µM
[57]
  TGI: > 100 µM
[29]
  TGI: > 100 µM
[30]
  TGI: > 100 µM
[31]
  TGI: > 100 µM
[32]
  TGI: > 100 µM
[33]
  TGI: > 100 µM
[34]
  TGI: > 100 µM
[35]
  TGI: > 100 µM
[58]
  TGI: > 100 µM
[37]
  TGI: > 100 µM
[38]
  TGI: > 100 µM
[39]
  TGI: > 100 µM
[40]
  TGI: > 100 µM
[41]
  TGI: > 100 µM
[42]
  TGI: > 100 µM
[43]
  TGI: > 100 µM
[44]
  TGI: > 100 µM
[59]
  TGI: > 100 µM
[45]
  TGI: > 100 µM
[46]
  TGI: > 100 µM
[47]
  TGI: > 100 µM
[48]
  TGI: > 100 µM
[49]
  TGI: > 100 µM
[50]
  TGI: > 100 µM
[51]
  TGI: > 100 µM
[53]
  TGI: > 100 µM
[54]
  TGI: > 100 µM
[55]
  TGI: > 100 µM

## CC1=C(C(=O)Nc2ccc([N+](=O)[O-])cc2)C(c2ccccc2F)C(C(=O)Nc2ccc([N+](=O)[O-])cc2)=C(C)N1
[1]
  TGI: 53.9 µM
[2]
  TGI: > 100 µM
[3]
  TGI: 79.7 µM
[4]
  TGI: > 100 µM
[5]
  TGI: 29.7 µM
[6]
  TGI: 51.7 µM
[7]
  TGI: 55.5 µM
[8]
  TGI: 76.6 µM
[9]
  TGI: 48.3 µM
[10]
  TGI: 40.6 µM
[11]
  TGI: > 100 µM
[12]
  TGI: 68.9 µM
[13]
  TGI: 31.3 µM
[14]
  TGI: 27.5 µM
[15]
  TGI: 34.9 µM
[16]
  TGI: 79.7 µM
[17]
  TGI: > 100 µM
[18]
  TGI: 31.5 µM
[19]
  TGI: 39.8 µM
[20]
  TGI: > 100 µM
[22]
  TGI: 35 µM
[23]
  TGI: 69.7 µM
[24]
  TGI: > 100 µM
[26]
  TGI: > 100 µM
[27]
  TGI: > 100 µM
[28]
  TGI: 59.6 µM
[57]
  TGI: > 100 µM
[29]
  TGI: 24.7 µM
[30]
  TGI: 27.4 µM
[31]
  TGI: 31.1 µM
[32]
  TGI: > 100 µM
[33]
  TGI: 42.6 µM
[34]
  TGI: 39.8 µM
[35]
  TGI: 6.94 µM
[58]
  TGI: 24.7 µM
[37]
  TGI: 44.4 µM
[38]
  TGI: > 100 µM
[39]
  TGI: > 100 µM
[40]
  TGI: 29.8 µM
[41]
  TGI: 89.8 µM
[42]
  TGI: 83.9 µM
[44]
  TGI: 48.7 µM
[45]
  TGI: 49.4 µM
[46]
  TGI: 29.1 µM
[47]
  TGI: 95.2 µM
[48]
  TGI: 47.8 µM
[49]
  TGI: > 100 µM
[50]
  TGI: 48.7 µM
[51]
  TGI: 63 µM
[52]
  TGI: 87.8 µM
[53]
  TGI: 79.2 µM
[54]
  TGI: > 100 µM
[55]
  TGI: > 100 µM

## O=C(O)c1ccccc1NC(=O)C1CCCCC1
[1]
  TGI: > 100 µM
[2]
  TGI: > 100 µM
[3]
  TGI: > 100 µM
[4]
  TGI: > 100 µM
[5]
  TGI: > 100 µM
[6]
  TGI: > 100 µM
[7]
  TGI: > 100 µM
[8]
  TGI: > 100 µM
[56]
  TGI: > 100 µM
[9]
  TGI: > 100 µM
[10]
  TGI: > 100 µM
[11]
  TGI: > 100 µM
[13]
  TGI: > 100 µM
[14]
  TGI: > 100 µM
[15]
  TGI: > 100 µM
[16]
  TGI: > 100 µM
[17]
  TGI: > 100 µM
[18]
  TGI: > 100 µM
[19]
  TGI: > 100 µM
[20]
  TGI: > 100 µM
[21]
  TGI: > 100 µM
[23]
  TGI: > 100 µM
[24]
  TGI: > 100 µM
[25]
  TGI: > 100 µM
[26]
  TGI: > 100 µM
[27]
  TGI: > 100 µM
[28]
  TGI: > 100 µM
[57]
  TGI: > 100 µM
[29]
  TGI: > 100 µM
[30]
  TGI: > 100 µM
[31]
  TGI: > 100 µM
[32]
  TGI: > 100 µM
[33]
  TGI: > 100 µM
[34]
  TGI: > 100 µM
[35]
  TGI: > 100 µM
[58]
  TGI: > 100 µM
[38]
  TGI: > 100 µM
[39]
  TGI: > 100 µM
[40]
  TGI: > 100 µM
[41]
  TGI: > 100 µM
[42]
  TGI: > 100 µM
[43]
  TGI: > 100 µM
[44]
  TGI: > 100 µM
[45]
  TGI: > 100 µM
[46]
  TGI: > 100 µM
[47]
  TGI: > 100 µM
[48]
  TGI: > 100 µM
[49]
  TGI: > 100 µM
[50]
  TGI: > 100 µM
[51]
  TGI: > 100 µM
[52]
  TGI: > 100 µM
[54]
  TGI: > 100 µM
[55]
  TGI: > 100 µM
